Laboratory results published in patent US9914722B2, “Compounds for treating spinal muscular atrophy” (PTC Therapeutics Inc., priority 2012, dated 2018).

Tests used:
[1] = tested on: full length SMN2 minigene mRNA containing SMN2 exon 7 (SMN2-A minigene); test: SMN2 minigene mRNA splicing RT-qPCR assay in cultured cells; assay type: cell-based, human; conditions: Homo sapiens, HEK293-H; HEK293H cells stably transfected with SMN2-A minigene, 24 hours, 7-point concentration curve; concentration giving 1.5-fold SMN2 full length mRNA vs vehicle; read-out: EC1.5x for production of full length SMN2 mRNA
Method in brief: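 HEK293H cells stably carrying the SMN2-A minigene were treated 24 h at 37 °C with a 7-point, 3.16-fold test compound series, in duplicate. Multiplex RT-qPCR measured exon 7-containing minigene FL mRNA, normalized to GAPDH and expressed relative to vehicle; EC1.5x is the concentration giving 1.5-fold FL mRNA.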

Smn protein = Smn protein assay (Smn HTRF) in cultured cells; assay type: cell-based, human; conditions: Homo sapiens, Fibroblast, GM03813 SMA Type 1 patient fibroblasts, 48 hours, HTRF; for maximal fold induction: 7-point concentration data, relative to vehicle, read-out: maximum fold (Fold) increase of Smn protein; for EC (1.5-fold): concentration producing 1.5 times Smn protein vs DMSO vehicle, read-out: EC1.5x for Smn protein expression
Method in brief: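 SMA patient fibroblasts (5,000/well) were exposed to a 7-point, 3.16-fold compound dilution series for 48 hours at 37° C, in triplicate. Lysates were read by HTRF with anti-SMN d2/kryptate at 665/620 nm. Blank-corrected signal was expressed as fold over DMSO vehicle, giving the EC1.5x and the maximum fold increase.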

| SMILES | melting point | EC (1.5-fold) [1] | maximal fold induction (Smn protein) | EC (1.5-fold) (Smn protein) |
| --- | --- | --- | --- | --- |
| COc1ccc(-c2cc(=O)c3cc(N4CCN[C@H](C)C4)ccc3o2)cc1F [Cpd 40, 2-(3-fluoro-4-methoxyphenyl)-6-[(3R)-3-methylpiperazin-1-yl]-4H-chromen-4-one] | 110 to 112 °C | 0.1 to 0.3 µM | 1.35 to 1.5 | 1 to 3 µM |
| CN1CCN(c2ccc3oc(-c4ccccn4)cc(=O)c3c2)CC1 [Cpd 12, 6-(4-methylpiperazin-1-yl)-2-(pyridin-2-yl)-4H-chromen-4-one] | 150 to 152 °C | 3 to 30 µM | ≤ 1.2 | – |
| COc1cc(F)c(-c2cc(=O)c3cc(N4CCN[C@H](C)C4)ccc3o2)cc1OC [Cpd 48, 2-(2-fluoro-4,5-dimethoxyphenyl)-6-[(3R)-3-methylpiperazin-1-yl]-4H-chromen-4-one] | 180 to 182 °C | 1 to 3 µM | 1.5 to 1.65 | 1 to 3 µM |
| O=c1cc(-c2cncc(F)c2)oc2ccc(N3CCNCC3)cc12 [Cpd 74, 2-(5-fluoropyridin-3-yl)-6-(piperazin-1-yl)-4H-chromen-4-one] | 182 to 184 °C | 0.3 to 1 µM | 1.5 to 1.65 | 1 to 3 µM |
| COc1cc(F)c(-c2cc(=O)c3cc(N4CCNCC4)ccc3o2)cc1OC [Cpd 45, 2-(2-fluoro-4,5-dimethoxyphenyl)-6-(piperazin-1-yl)-4H-chromen-4-one] | 130 to 132 °C | 1 to 3 µM | 1.2 to 1.35 | – |
| COc1ccc(-c2cc(=O)c3cc(N4CCN[C@H](C)C4)ccc3o2)cc1Cl [Cpd 61, 2-(3-chloro-4-methoxyphenyl)-6-[(3R)-3-methylpiperazin-1-yl]-4H-chromen-4-one] | 170 to 172 °C | 0.1 to 0.3 µM | 1.2 to 1.35 | – |
| O=c1cc(-c2cccnc2)oc2ccc(N3CCNCC3)cc12 [Cpd 1, 6-(piperazin-1-yl)-2-(pyridin-3-yl)-4H-chromen-4-one] | 177 to 180 °C | 0.3 to 1 µM | 1.35 to 1.5 | – |
| C[C@@H]1CN(c2ccc3oc(-c4ccccn4)cc(=O)c3c2)CCN1 [Cpd 15, 6-[(3R)-3-methylpiperazin-1-yl]-2-(pyridin-2-yl)-4H-chromen-4-one] | 140 to 142 °C | 1 to 3 µM | 1.5 to 1.65 | 3 to 10 µM |
| CC(C)Oc1ccc(-c2cc(=O)c3cc(N4CCN[C@@H](C)C4)ccc3o2)cc1 [Cpd 50, 6-[(3S)-3-methylpiperazin-1-yl]-2-[4-(propan-2-yloxy)phenyl]-4H-chromen-4-one] | 128 to 130 °C | 1 to 3 µM | ≤ 1.2 | – |
| O=c1cc(-c2cccc(F)c2)oc2ccc(N3CCNCC3)cc12 [Cpd 66, 2-(3-fluorophenyl)-6-(piperazin-1-yl)-4H-chromen-4-one] | 150 to 152 °C | 0.1 to 0.3 µM | 1.35 to 1.5 | – |
| COc1ccc(-c2cc(=O)c3cc(N4C[C@@H](C)N[C@@H](C)C4)ccc3o2)cc1F [Cpd 39, 6-[(3R,5S)-3,5-dimethylpiperazin-1-yl]-2-(3-fluoro-4-methoxyphenyl)-4H-chromen-4-one] | 180 to 182 °C | 0.1 to 0.3 µM | 1.5 to 1.65 | 3 to 10 µM |

Now from value to compound, other results behind:

| melting point | SMILES | EC (1.5-fold) [1] | maximal fold induction (Smn protein) | EC (1.5-fold) (Smn protein) |
| --- | --- | --- | --- | --- |
| 198 to 200 °C | COc1ccc(-c2cc(=O)c3cc(N4CCN[C@H](C)C4)ccc3o2)cn1 [Cpd 57, 2-(6-methoxypyridin-3-yl)-6-[(3R)-3-methylpiperazin-1-yl]-4H-chromen-4-one] | 0.3 to 1 µM | 1.2 to 1.35 | – |
| 178 to 180 °C | COc1ccc(-c2cc(=O)c3cc(N4CCNCC4)ccc3o2)cc1F [Cpd 37, 2-(3-fluoro-4-methoxyphenyl)-6-(piperazin-1-yl)-4H-chromen-4-one] | 0.1 to 0.3 µM | 1.35 to 1.5 | 1 to 3 µM |
| 196 to 200 °C | COc1ccc(-c2cc(=O)c3cc(N4CCN[C@@H](C)C4)ccc3o2)cn1 [Cpd 56, 2-(6-methoxypyridin-3-yl)-6-[(3S)-3-methylpiperazin-1-yl]-4H-chromen-4-one] | 0.3 to 1 µM | 1.35 to 1.5 | – |
| 106 to 108 °C | COc1ccc(-c2cc(=O)c3cc(N4CCCN(C)CC4)ccc3o2)cc1OC [Cpd 26, 2-(3,4-dimethoxyphenyl)-6-(4-methyl-1,4-diazepan-1-yl)-4H-chromen-4-one] | 3 to 30 µM | 1.35 to 1.5 | – |
| 207 to 211 °C | O=c1cc(-c2cn3ccccc3n2)oc2ccc(N3CCNCC3)cc12 [Cpd 8, 2-(imidazo[1,2-a]pyridin-2-yl)-6-(piperazin-1-yl)-4H-chromen-4-one] | 0.3 to 1 µM | 1.5 to 1.65 | 3 to 10 µM |
| 168 to 172 °C | C[C@H]1CN(c2ccc3oc(-c4cncc(F)c4)cc(=O)c3c2)CCN1 [Cpd 75, 2-(5-fluoropyridin-3-yl)-6-[(3S)-3-methylpiperazin-1-yl]-4H-chromen-4-one] | 0.3 to 1 µM | 1.5 to 1.65 | 1 to 3 µM |
| 146 to 148 °C | O=c1cc(-c2ccc(OC(F)(F)F)cc2)oc2ccc(N3CCNCC3)cc12 [Cpd 64, 6-(piperazin-1-yl)-2-[4-(trifluoromethoxy)phenyl]-4H-chromen-4-one] | 0.3 to 1 µM | ≤ 1.2 | – |
| 162 to 164 °C | O=c1cc(-c2cccnc2)oc2ccc(N3CCCNCC3)cc12 [Cpd 6, 6-(1,4-diazepan-1-yl)-2-(pyridin-3-yl)-4H-chromen-4-one] | 3 to 30 µM | ≤ 1.2 | – |
| 166 to 170 °C | COc1ccc(-c2cc(=O)c3cc(N4CCNCC4)ccc3o2)cc1 [Cpd 62, 2-(4-methoxyphenyl)-6-(piperazin-1-yl)-4H-chromen-4-one] | 0.1 to 0.3 µM | 1.2 to 1.35 | – |
| 148 to 150 °C | C[C@@H]1CN(c2ccc3oc(-c4cccnc4)cc(=O)c3c2)C[C@H](C)N1 [Cpd 9, 6-[(3R,5S)-3,5-dimethylpiperazin-1-yl]-2-(pyridin-3-yl)-4H-chromen-4-one] | 1 to 3 µM | 1.5 to 1.65 | 3 to 10 µM |
| 136 to 138 °C | CN1CCCN(c2ccc3oc(-c4cccnc4)cc(=O)c3c2)CC1 [Cpd 5, 6-(4-methyl-1,4-diazepan-1-yl)-2-(pyridin-3-yl)-4H-chromen-4-one] | 3 to 30 µM | 1.2 to 1.35 | – |
| 148 to 150 °C | CC(C)N1CCN(c2ccc3oc(-c4cccnc4)cc(=O)c3c2)CC1 [Cpd 4, 6-[4-(propan-2-yl)piperazin-1-yl]-2-(pyridin-3-yl)-4H-chromen-4-one] | 3 to 30 µM | ≤ 1.2 | – |
| 180 to 182 °C | CCOc1ccc(-c2cc(=O)c3cc(N4CCNCC4)ccc3o2)cc1 [Cpd 41, 2-(4-ethoxyphenyl)-6-(piperazin-1-yl)-4H-chromen-4-one] | 0.3 to 1 µM | ≤ 1.2 | – |
| 142 to 144 °C | C[C@@H]1CN(c2ccc3oc(-c4nc5ccccc5s4)cc(=O)c3c2)CCN1 [Cpd 33, 2-(1,3-benzothiazol-2-yl)-6-[(3R)-3-methylpiperazin-1-yl]-4H-chromen-4-one] | 1 to 3 µM | 1.2 to 1.35 | – |
